Experimental data: ChEMBL document CHEMBL5131495, “Discovery of unique thiazolidinone-conjugated coumarins as novel broad spectrum antibacterial agents” (Eur J Med Chem, 2022)
Converted amounts (≈) assume the structure as drawn. The source made the active and inactive calls. The calls are words filed in the database; no cut-off is given here.

Experiments:
Enterococcus faecalis = test: Antibacterial activity against Enterococcus faecalis assessed as inhibition of bacterial growth; type: functional
Staphylococcus aureus [1] = test: Antibacterial activity against Staphylococcus aureus ATCC 25923 assessed as inhibition of bacterial growth; type: functional
Klebsiella pneumoniae = test: Antibacterial activity against Klebsiella pneumoniae assessed as inhibition of bacterial growth; type: functional
Escherichia coli [2] = test: Antibacterial activity against Escherichia coli ATCC 25922 assessed as inhibition of bacterial growth; type: functional
Staphylococcus aureus [3] = test: Antibacterial activity against Staphylococcus aureus ATCC 29213 assessed as inhibition of bacterial growth; type: functional
Pseudomonas aeruginosa [4] = test: Antibacterial activity against Pseudomonas aeruginosa assessed as inhibition of bacterial growth; type: functional
Acinetobacter baumannii [5] = test: Antibacterial activity against Acinetobacter baumannii assessed as inhibition of bacterial growth; type: functional
Staphylococcus aureus [6] = test: Antibacterial activity against Staphylococcus aureus assessed as inhibition of bacterial growth; type: functional
Pseudomonas aeruginosa [7] = test: Antibacterial activity against Pseudomonas aeruginosa ATCC 27853 assessed as inhibition of bacterial growth; type: functional
Escherichia coli [8] = test: Antibacterial activity against Escherichia coli assessed as inhibition of bacterial growth; type: functional
Staphylococcus aureus [9] = test: Antibacterial activity against methicillin resistant Staphylococcus aureus N315 assessed as inhibition of bacterial growth; type: functional
Calf thymus DNA [10] = test: Binding affinity to calf thymus DNA assessed as hypochromic shift by UV-vis spectrophotometric analysis; type: nucleic-acid assay; details: Bos taurus
[11] = Cytotoxicity against human liver cancer cells assessed as cell viability at 10 ug/ml by CCK8 method relative to control; type: functional; details: read-out: Activity
Cell membrane [12] = test: Induction of cell membrane depolarization in Acinetobacter baumannii assessed as increase in fluorescence intensity at MIC by DiSC35 dye-based fluorescence assay; type: subcellular; details: time <= 60.0 min, TDE = time-dependent effect
Cell membrane [13] = test: Induction of inner membrane permeabilization in Acinetobacter baumannii assessed as increase in red fluorescence intensity by fluorescence microscopic analysis
Cell membrane [14] = test: Induction of cell membrane damage in Acinetobacter baumannii assessed as increase in nucleic acid leakage by measuring fold increase in absorbance at 8 times MIC by spectrophotometry; type: subcellular
Acinetobacter baumannii [15] = test: Anti- biofilm activity against Acinetobacter baumannii assessed as decrease in biofilm viability at 2 ug/ml by resazurin dye based assay relative to control; type: functional; details: dose 2 µg/ml
Acinetobacter baumannii [16] = test: Antibacterial activity against Acinetobacter baumannii assessed as reduction in GSH activity by Ellman's method; type: functional, organism-based; details: DDE = dose-dependent effect
[17] = Hemolytic activity in human RBC assessed as hemolysis rate at 64 times MIC relative to control; type: toxicity, cell-based, Erythrocyte; details: red blood cells (erythrocytes), read-out: Activity
Calf thymus DNA [18] = test: Binding affinity to calf thymus DNA assessed as reduction in fluorescence intensity of acridine orange-DNA complex formation by measuring […] by competitive binding assay; type: nucleic-acid assay; details: Bos taurus; DDE = dose-dependent effect
Acinetobacter baumannii [19] = test: Induction of ROS production in Acinetobacter baumannii assessed as fold change at 16 times MIC by DCFH-DA staining based fluorescence analysis; type: functional
Cell membrane [20] = test: Induction of cell membrane damage in Acinetobacter baumannii assessed as increase in protein leakage; type: subcellular
Acinetobacter baumannii [21] = test: Antibacterial activity against Acinetobacter baumannii assessed fold increase in malondialdehyde production measured at upto 16 times MIC; type: functional
Acinetobacter baumannii [22] = test: Induction of ROS production in Acinetobacter baumannii by DCFH-DA staining based fluorescence analysis; type: functional; details: DDE = dose-dependent effect
[23] = Cytotoxicity against human endothelial cells assessed as cell viability at 10 ug/ml by CCK8 method relative to control; type: toxicity, cell-based; details: at 10 µg/mL, read-out: Activity
Cell membrane [24] = test: Induction of cell membrane destruction in Acinetobacter baumannii assessed as reduction in metabolic activity; type: subcellular; details: DDE = dose-dependent effect
Cell membrane [25] = test: Induction of inner membrane permeabilization in Acinetobacter baumannii assessed as increase in fluorescence intensity by propidium iodide staining based fluorescence analysis; type: subcellular; details: DDE = dose-dependent effect
Cell membrane [26] = test: Induction of outer membrane permeabilization in Acinetobacter baumannii assessed as increase in fluorescence intensity at MIC by NPN-dye based fluorescence assay; type: subcellular; details: time <= 120.0 min

Row | Compound | MIC (Enterococcus faecalis) | MIC (Staphylococcus aureus [1]) | MIC (Klebsiella pneumoniae) | MIC (Escherichia coli [2]) | MIC (Staphylococcus aureus [3]) | MIC (Pseudomonas aeruginosa [4]) | MIC (Acinetobacter baumannii [5]) | MIC (Staphylococcus aureus [6]) | MIC (Pseudomonas aeruginosa [7]) | MIC (Escherichia coli [8]) | MIC (Staphylococcus aureus [9]) | further results
1 | Cc1cc(=O)oc2cc(/N=C3/S/C(=C\c4c[nH]c5cc(Cl)ccc45)C(=O)N3CCO)ccc12 | 4 µg/mL (≈ 8.33 µM) | 8 µg/mL (≈ 16.7 µM) | 8 µg/mL (≈ 16.7 µM) | 16 µg/mL (≈ 33.3 µM) | 64 µg/mL (≈ 133 µM) | 128 µg/mL (≈ 267 µM) | 4 µg/mL (≈ 8.33 µM) | 16 µg/mL (≈ 33.3 µM) | 64 µg/mL (≈ 133 µM) | 8 µg/mL (≈ 16.7 µM) | 8 µg/mL (≈ 16.7 µM) | 
2 | Cc1cc(=O)oc2cc(/N=C3/S/C(=C\c4ccccc4)C(=O)N3CCO)ccc12 | 128 µg/mL (≈ 315 µM) | 128 µg/mL (≈ 315 µM) | 256 µg/mL (≈ 630 µM) | 256 µg/mL (≈ 630 µM) | 128 µg/mL (≈ 315 µM) | 64 µg/mL (≈ 157 µM) | 1 µg/mL (≈ 2.46 µM) | 64 µg/mL (≈ 157 µM) | 64 µg/mL (≈ 157 µM) | 256 µg/mL (≈ 630 µM) | 64 µg/mL (≈ 157 µM) | 
3 | Cc1cc(=O)oc2cc(/N=C3/S/C(=C\c4ncc[nH]4)C(=O)N3CCO)ccc12 | 64 µg/mL (≈ 161 µM) | 128 µg/mL (≈ 323 µM) | 16 µg/mL (≈ 40.4 µM) | 64 µg/mL (≈ 161 µM) | 32 µg/mL (≈ 80.7 µM) | 32 µg/mL (≈ 80.7 µM) | 16 µg/mL (≈ 40.4 µM) | 8 µg/mL (≈ 20.2 µM) | 128 µg/mL (≈ 323 µM) | 32 µg/mL (≈ 80.7 µM) | 64 µg/mL (≈ 161 µM) | 
4 | Cc1cc(=O)oc2cc(/N=C3/S/C(=C\c4ccccc4F)C(=O)N3CCO)ccc12 | 0.25 µg/mL (≈ 0.589 µM) | 32 µg/mL (≈ 75.4 µM) | 32 µg/mL (≈ 75.4 µM) | 16 µg/mL (≈ 37.7 µM) | 64 µg/mL (≈ 151 µM) | 4 µg/mL (≈ 9.42 µM) | 16 µg/mL (≈ 37.7 µM) | 1 µg/mL (≈ 2.36 µM) | 1 µg/mL (≈ 2.36 µM) | 32 µg/mL (≈ 75.4 µM) | 4 µg/mL (≈ 9.42 µM) | 
5 | Cc1cc(=O)oc2cc(/N=C3/S/C(=C\c4c[nH]c5ccccc45)C(=O)N3CCO)ccc12 | 0.25 µg/mL (≈ 0.561 µM) | 0.25 µg/mL (≈ 0.561 µM) | 0.5 µg/mL (≈ 1.12 µM) | 1 µg/mL (≈ 2.24 µM) | 0.25 µg/mL (≈ 0.561 µM) | 256 µg/mL (≈ 575 µM) | 0.25 µg/mL (≈ 0.561 µM) | 2 µg/mL (≈ 4.49 µM) | 32 µg/mL (≈ 71.8 µM) | 0.25 µg/mL (≈ 0.561 µM) | 0.25 µg/mL (≈ 0.561 µM) | Activity (Calf thymus DNA [10]): Active; viability at 10 µg/mL [11]: 47%; Activity (Cell membrane [12]): Tde; Activity (Cell membrane [13]): Active; fold change (FC) (Cell membrane [14]): 3.8; Activity (Acinetobacter baumannii [15]): 45%; Activity (Acinetobacter baumannii [16]): Dde; hemolysis at 64 times MIC [17]: < 5%; Activity (Calf thymus DNA [18]): Dde; fold change (FC) (Acinetobacter baumannii [19]): 5.3; Activity (Cell membrane [20]): Active; fold change (FC) (Acinetobacter baumannii [21]): 3; Activity (Acinetobacter baumannii [22]): Dde; viability at 10 ug/ml [23]: 75%; Activity (Cell membrane [24]): Dde; Activity (Cell membrane [25]): Dde; Activity (Cell membrane [26]): Active
6 | COc1ccc(/C=C2\S/C(=N/c3ccc4c(C)cc(=O)oc4c3)N(CCO)C2=O)cc1 | 8 µg/mL (≈ 18.3 µM) | 32 µg/mL (≈ 73.3 µM) | 128 µg/mL (≈ 293 µM) | 128 µg/mL (≈ 293 µM) | 0.5 µg/mL (≈ 1.15 µM) | 64 µg/mL (≈ 147 µM) | 8 µg/mL (≈ 18.3 µM) | 32 µg/mL (≈ 73.3 µM) | 128 µg/mL (≈ 293 µM) | 32 µg/mL (≈ 73.3 µM) | 4 µg/mL (≈ 9.16 µM) | 
7 | Cc1cc(=O)oc2cc(/N=C3/S/C(=C\C4CCCCC4)C(=O)N3CCO)ccc12 | 256 µg/mL (≈ 621 µM) | 256 µg/mL (≈ 621 µM) | 256 µg/mL (≈ 621 µM) | 256 µg/mL (≈ 621 µM) | 16 µg/mL (≈ 38.8 µM) | 256 µg/mL (≈ 621 µM) | 64 µg/mL (≈ 155 µM) | 256 µg/mL (≈ 621 µM) | 16 µg/mL (≈ 38.8 µM) | 256 µg/mL (≈ 621 µM) | 256 µg/mL (≈ 621 µM) | 
8 | Cc1cc(=O)oc2cc(/N=C3/S/C(=C\c4ccc(C#N)cc4)C(=O)N3CCO)ccc12 | 4 µg/mL (≈ 9.27 µM) | 8 µg/mL (≈ 18.5 µM) | 128 µg/mL (≈ 297 µM) | 256 µg/mL (≈ 593 µM) | 128 µg/mL (≈ 297 µM) | 128 µg/mL (≈ 297 µM) | 0.5 µg/mL (≈ 1.16 µM) | 1 µg/mL (≈ 2.32 µM) | 256 µg/mL (≈ 593 µM) | 256 µg/mL (≈ 593 µM) | 2 µg/mL (≈ 4.64 µM) | 
9 | CCCCc1nc(Cl)c(/C=C2\S/C(=N/c3ccc4c(C)cc(=O)oc4c3)N(CCO)C2=O)[nH]1 | 128 µg/mL (≈ 263 µM) | 128 µg/mL (≈ 263 µM) | 64 µg/mL (≈ 131 µM) | 64 µg/mL (≈ 131 µM) | 64 µg/mL (≈ 131 µM) | 256 µg/mL (≈ 526 µM) | 64 µg/mL (≈ 131 µM) | 8 µg/mL (≈ 16.4 µM) | 256 µg/mL (≈ 526 µM) | 32 µg/mL (≈ 65.7 µM) | 128 µg/mL (≈ 263 µM) | 
10 | C=CCn1cc(/C=C2\S/C(=N/c3ccc4c(C)cc(=O)oc4c3)N(CCO)C2=O)c2ccccc21 | 128 µg/mL (≈ 264 µM) | 32 µg/mL (≈ 65.9 µM) | 8 µg/mL (≈ 16.5 µM) | 128 µg/mL (≈ 264 µM) | 64 µg/mL (≈ 132 µM) | 64 µg/mL (≈ 132 µM) | 64 µg/mL (≈ 132 µM) | 128 µg/mL (≈ 264 µM) | 32 µg/mL (≈ 65.9 µM) | 128 µg/mL (≈ 264 µM) | 128 µg/mL (≈ 264 µM) | 
11 | Cc1cc(=O)oc2cc(/N=C3\NC(=O)CS3)ccc12 | 256 µg/mL (≈ 933 µM) | 64 µg/mL (≈ 233 µM) | 4 µg/mL (≈ 14.6 µM) | 128 µg/mL (≈ 467 µM) | 256 µg/mL (≈ 933 µM) | 64 µg/mL (≈ 233 µM) | 256 µg/mL (≈ 933 µM) | 32 µg/mL (≈ 117 µM) | 128 µg/mL (≈ 467 µM) | 16 µg/mL (≈ 58.3 µM) | 256 µg/mL (≈ 933 µM) | 
12 | Cc1cc(=O)oc2cc(/N=C3/S/C(=C\c4ccc(F)cc4F)C(=O)N3CCO)ccc12 | 2 µg/mL (≈ 4.52 µM) | 4 µg/mL (≈ 9.04 µM) | 64 µg/mL (≈ 145 µM) | 128 µg/mL (≈ 289 µM) | 32 µg/mL (≈ 72.3 µM) | 64 µg/mL (≈ 145 µM) | 64 µg/mL (≈ 145 µM) | 32 µg/mL (≈ 72.3 µM) | 32 µg/mL (≈ 72.3 µM) | 64 µg/mL (≈ 145 µM) | 64 µg/mL (≈ 145 µM) | 
